Measurements from article doi:10.1101/2025.10.20.683482v1 (biorxiv, 2025).

Columns and labels:
67nR = experiment: cells; conditions: 72 h, read-out: 67nR
4T1 = experiment: cells; conditions: Mus musculus, 4T1, 72 h, read-out: 4T1
[1] = molecular target: Human recombinant Methionine Aminopeptidase 2 (MetAp2) (Homo sapiens, UniProt P50579); experiment: fluorometric H-Met-AMC hydrolysis; format: biochemical
MDA-MB 231 = experiment: cells; conditions: Homo sapiens, MDA-MB-231, 72 h, read-out: MDA-MB 231
MIA PaCa = experiment: cells; conditions: Homo sapiens, MIA PaCa-2, 72 h, read-out: MIA PaCa
BxPC3 = experiment: cells; conditions: Homo sapiens, BXPC-3, 72 h, read-out: BxPC3

Chain of Human recombinant Methionine Aminopeptidase 2 (MetAp2) (P50579 2-478): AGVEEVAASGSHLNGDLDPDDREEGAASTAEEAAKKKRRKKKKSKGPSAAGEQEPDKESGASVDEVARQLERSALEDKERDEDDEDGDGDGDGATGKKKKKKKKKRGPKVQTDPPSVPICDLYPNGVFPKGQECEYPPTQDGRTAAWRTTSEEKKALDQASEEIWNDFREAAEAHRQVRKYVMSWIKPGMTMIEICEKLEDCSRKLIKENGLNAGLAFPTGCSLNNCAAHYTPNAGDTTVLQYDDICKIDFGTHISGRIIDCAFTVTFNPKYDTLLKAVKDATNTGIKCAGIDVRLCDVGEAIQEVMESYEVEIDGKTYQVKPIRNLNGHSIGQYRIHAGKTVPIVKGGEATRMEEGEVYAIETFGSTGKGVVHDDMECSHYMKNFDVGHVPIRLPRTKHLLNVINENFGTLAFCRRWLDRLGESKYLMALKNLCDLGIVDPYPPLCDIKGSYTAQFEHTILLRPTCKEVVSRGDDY

Row | Compound | IC50 (67nR) | IC50 (4T1) | IC50 [1] | IC50 (MDA-MB 231) | IC50 (MIA PaCa) | IC50 (BxPC3)
1 | O=[N+]([O-])c1ccc(OCOCc2ccccc2)c2ncccc12 [compound 9] |  | 25.4 ± 3.1 µM | 92.1 µM | > 100 µM | 60.2 ± 1.52 µM | 44.1 ± 2.09 µM
2 | CC(C)(C)[Si](Oc1ccc([N+](=O)[O-])c2cccnc12)(c1ccccc1)c1ccccc1 [compound 4] | 15.6 ± 2.21 µM | 4.6 ± 2.41 µM | 3.42 µM | 15.9 ± 1.47 µM | 10.4 ± 1.56 µM | 12.8 ± 1.09 µM
3 | CS(=O)(=O)Oc1ccc([N+](=O)[O-])c2cccnc12 [compound 5] | 25.2 ± 1.96 µM | 4.22 ± 0.32 µM |  | 13.1 ± 1.96 µM | 13.8 ± 0.85 µM | 25.6 ± 3.35 µM
4 | CC(C)(C)[Si](C)(C)Oc1ccc([N+](=O)[O-])c2cccnc12 [compound 2] | 23.3 ± 1.5 µM | 4.92 ± 1.63 µM | 4.3 µM | 19.2 ± 1.52 µM | 10.4 ± 2.26 µM | 15.2 ± 2.01 µM

More lines, in order of falling IC50 (4T1), values ahead:

Row | IC50 (67nR) | IC50 (4T1) | IC50 [1] | IC50 (MDA-MB 231) | IC50 (MIA PaCa) | IC50 (BxPC3) | Compound
5 | 16.8 ± 2.74 µM | 4.67 ± 1.13 µM |  | 20.4 ± 1.22 µM | 11.5 ± 2.06 µM | 13.9 ± 1.77 µM | O=[N+]([O-])c1ccc(O)c2ncccc12 [compound 1, 5-nitroquinolin-8-ol]
6 | 10.3 ± 1.45 µM | 4.13 ± 1.17 µM | > 100 µM | 13.8 ± 2.98 µM | 9.63 ± 2.35 µM | 11.7 ± 1.64 µM | O=[N+]([O-])c1ccc(OS(=O)(=O)C(F)(F)F)c2ncccc12 [compound 6]
7 | 14.4 ± 2.97 µM | 2.76 ± 0.21 µM | 2.86 µM | 17.3 ± 1.07 µM | 9.71 ± 2.96 µM | 16.7 ± 1.73 µM | CC(C)[Si](Oc1ccc([N+](=O)[O-])c2cccnc12)(C(C)C)C(C)C [compound 3]
8 |  | 2.43 ± 1.05 µM | 21.1 µM | 34.7 ± 2.17 µM | 28.2 ± 3.35 µM | 18.1 ± 2.86 µM | C[Si](C)(C)CCOCOc1ccc([N+](=O)[O-])c2cccnc12 [compound 7]
